Consider 2 compounds from paper PMC11134350, “Substrate Promiscuity of Thermoplasma acidophilum Malic Enzyme for CO2 Fixation Reaction” (JACS Au, 2024).

In the assay the test system is T1, TaME (Thermoplasma acidophilum NADP+-malic enzyme).
T1 construct: dimer (from structural model); Asn304 and Thr46* named at active site
Nature of the assay: NADPH formation, oxidative decarboxylation, Michaelis-Menten. It is filed as biochemical. The note with it: NADP+ as cofactor, standard assay conditions in supplement section 1.3.1, read-out: Km(substrate). The source says:
NADPH formation, oxidative decarboxylation, Michaelis-Menten on TaME (Thermoplasma acidophilum NADP+-malic enzyme)

Where two headings read alike, the source gives them in different places.

For the compound `O=C(O)C[C@H](C(=O)O)[C@@H](O)C(=O)O` [2b, Isocitrate], where the note is “0.03-0.60 mM isocitrate”, the Michaelis constant (Km) (usually the concentration of substrate that gives half-maximal velocity) came to 23.7 ± 5.2 µM.

`O=C(O)C[C@H](O)C(=O)O` [1b, Malate]: the Michaelis-Menten constant (Km) (0.05-1.0 mM malate) is 879 ± 149 µM.
